From ChEMBL document CHEMBL5131397, “Discovery and Optimization of Pyrazole Amides as Inhibitors of ELOVL1” (J Med Chem, 2021)
pIC50: −log10 of the molar value.

Assays:
[1] = biological target: T1, Very long chain fatty acid elongase 1 (Homo sapiens, UniProt Q9BW60); assay: Inhibition of ELOVL1 (unknown origin) using C22-acyl-CoA as substrate by radiometric enzyme assay
T1 sequence (Q9BW60 whole entry): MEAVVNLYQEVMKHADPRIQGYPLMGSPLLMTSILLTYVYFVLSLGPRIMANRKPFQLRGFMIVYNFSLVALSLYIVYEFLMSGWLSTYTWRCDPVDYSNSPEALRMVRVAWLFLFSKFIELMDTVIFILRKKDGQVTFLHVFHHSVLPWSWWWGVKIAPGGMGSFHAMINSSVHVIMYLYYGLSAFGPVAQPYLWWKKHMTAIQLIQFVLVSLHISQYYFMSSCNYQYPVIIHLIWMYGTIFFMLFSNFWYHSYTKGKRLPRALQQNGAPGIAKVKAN

[2] = biological target: T1, Very long chain fatty acid elongase 1; assay: Inhibition of ELOVL1 in human HEK2936E cells assessed as reduction of C26:0 LPC synthesis incubated for 48 hrs by cellular assay; type: cell-based
[3] = Intrinsic clearance in human hepatocytes assessed per million cells; type: ADME, cell-based, Hepatocyte; conditions: read-out: CLH
[4] = Intrinsic clearance in rat hepatocytes assessed per million cells; type: ADME, cell-based, Hepatocyte; conditions: read-out: CLH
[5] = biological target: T2, Very long chain fatty acid elongase 6 (Homo sapiens, UniProt Q9H5J4); assay: Inhibition of ELOVL6 (unknown origin) using C16-acyl-CoA as substrate by radiometric enzyme assay
T2 sequence (Q9H5J4 whole entry): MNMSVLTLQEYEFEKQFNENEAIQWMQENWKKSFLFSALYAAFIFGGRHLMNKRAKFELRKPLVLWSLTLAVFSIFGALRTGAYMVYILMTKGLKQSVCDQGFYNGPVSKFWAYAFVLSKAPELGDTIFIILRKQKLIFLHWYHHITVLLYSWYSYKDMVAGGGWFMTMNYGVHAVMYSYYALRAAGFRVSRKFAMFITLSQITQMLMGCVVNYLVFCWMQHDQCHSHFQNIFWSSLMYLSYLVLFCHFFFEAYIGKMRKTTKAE

[6] = biological target: T3, Very long chain fatty acid elongase 7 (Homo sapiens, UniProt A1L3X0); assay: Inhibition of ELOVL7 (unknown origin) using C18-acyl-CoA as substrate by radiometric enzyme assay
T3 sequence (A1L3X0 whole entry): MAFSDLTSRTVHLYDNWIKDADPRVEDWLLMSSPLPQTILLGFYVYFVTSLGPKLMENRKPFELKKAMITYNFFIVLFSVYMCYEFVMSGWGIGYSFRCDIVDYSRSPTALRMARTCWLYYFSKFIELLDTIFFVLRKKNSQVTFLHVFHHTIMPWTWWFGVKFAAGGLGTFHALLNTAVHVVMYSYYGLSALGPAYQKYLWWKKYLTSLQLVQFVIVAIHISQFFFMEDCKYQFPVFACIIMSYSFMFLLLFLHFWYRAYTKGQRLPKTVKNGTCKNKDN

[7] = Reduction in C26:0 LPC level in ABCD1 (-/y) knock out mouse brain at 0.4 to 2 mg/kg, ip administered daily measured after 4.5 months by LC-MS/MS analysis; type: functional; set-up: scale not given: the % may be the effect or the level left; conditions: dose 0.4-2 mg/kg, 3285 h

Row | SMILES | pIC50 [1] | pIC50 [2] | hepatocyte CLint [3] | hepatocyte CLint [4] | pIC50 [5] | pIC50 [6] | Activity [7]
1 | CC1(C)CC1(C(=O)Nc1ccn(-c2ccccc2)n1)c1ccccc1 (stereo not drawn) | 5.36 | 6.05 | 50 µL/min/1e6 cells | 239 µL/min/1e6 cells |  |  | 
2 | O=C(Cc1ccccc1F)Nc1ncn(-c2ccccc2)n1 | < 4.30 | < 5.30 |  |  |  |  | 
3 | O=C(Cc1ccccc1F)Nc1nc(-c2ccnc(F)c2)cs1 | 5.36 |  |  |  | < 4.00 | < 4.00 | 
4 | O=C(Nc1ccn(-c2cncc(F)c2)n1)C1(c2cccc(F)c2F)CC1 | 5.89 | 6.85 | 6 µL/min/1e6 cells | 54 µL/min/1e6 cells |  |  | 
5 | O=C(Cc1ccccc1F)Nc1nccc(-c2ccccc2)n1 | < 4.30 | < 5.30 |  |  |  |  | 
6 | COc1ccc(C2(C(=O)Nc3ccn(-c4cncc(F)c4)n3)CC2)cc1 | 5.43 | 6.19 | 11 µL/min/1e6 cells | 103 µL/min/1e6 cells |  |  | 
7 | CC[C@@H](C(=O)Nc1ccn(-c2ccccc2)n1)c1ccccc1 | 5.02 | 6.19 | 88 µL/min/1e6 cells | 123 µL/min/1e6 cells |  |  | 
8 | O=C(Cc1ccccc1F)Nc1cnn(-c2ccccc2)c1 | < 4.30 | < 5.30 |  |  |  |  | 
9 | CCOC(C(=O)Nc1ccn(-c2ccccc2)n1)c1ccccc1 (stereo not drawn) | < 4.30 | < 5.30 |  |  |  |  | 
10 | Cc1cc(-n2ccc(NC(=O)C3(c4ccccc4F)CC3)n2)ccn1 | 4.68 | 5.80 | 7 µL/min/1e6 cells | 78 µL/min/1e6 cells |  |  | 
11 | C[C@H](C(=O)Nc1ccn(-c2ccccc2)n1)c1ccccc1 | 5.70 | 7.42 | 37 µL/min/1e6 cells | 308 µL/min/1e6 cells |  |  | 
12 | O=C(Cc1ccccc1F)Nc1ccn(-c2ccccc2)n1 | 5.80 | 7.22 | 55 µL/min/1e6 cells | 182 µL/min/1e6 cells |  |  | 
13 | O=C(Nc1ccn(-c2ccc(F)nc2)n1)C1(c2ccccc2F)CC1 | 6.10 | 7.64 | 6 µL/min/1e6 cells | 23 µL/min/1e6 cells |  |  | 
14 | Nc1cc(-n2ccc(NC(=O)C3(c4ccccc4F)CC3)n2)ccn1 | < 4.70 | 5.72 | 9 µL/min/1e6 cells | 54 µL/min/1e6 cells |  |  | 
15 | O=C(Cc1ccccc1F)Nc1cnn(-c2ccccc2)n1 | < 5.10 | 6.05 | 101 µL/min/1e6 cells | 518 µL/min/1e6 cells |  |  | 
16 | O=C(Cc1ccccc1F)Nc1ncc(-c2ccccc2)o1 | < 4.30 |  |  |  |  |  | 
17 | N#Cc1ccc(C2(C(=O)Nc3ccn(-c4cncc(F)c4)n3)CC2)cc1 | 5.66 | 6.96 | 5 µL/min/1e6 cells | 8 µL/min/1e6 cells |  |  | 
18 | O=C(Nc1ccn(-c2cncc(F)c2)n1)C1(c2cccc(F)c2)CC1 | 5.80 | 6.72 | 8 µL/min/1e6 cells | 97 µL/min/1e6 cells |  |  | 
19 | O=C(Cc1ccccc1)Nc1ccn(-c2ccccc2)n1 | 5.57 | 7.15 | 90 µL/min/1e6 cells | 519 µL/min/1e6 cells |  |  | 
20 | O=C(Nc1ccn(-c2ccnc(C(F)(F)F)c2)n1)C1(c2ccccc2F)CC1 | < 4.30 | < 5.30 | 8 µL/min/1e6 cells | 51 µL/min/1e6 cells |  |  | 
21 | N#Cc1ccccc1C1(C(=O)Nc2ccn(-c3cncc(F)c3)n2)CC1 | 4.64 | 5.60 | 5 µL/min/1e6 cells | 13 µL/min/1e6 cells |  |  | 
22 | O=C(Nc1ccn(-c2ccccc2)n1)C1(c2ccccc2F)CC1 | 6.30 | 7.92 | 30 µL/min/1e6 cells | 237 µL/min/1e6 cells |  |  | 
23 | CC(C)(C(=O)Nc1ccn(-c2ccccc2)n1)c1ccccc1 | 5.57 | 6.52 | 18 µL/min/1e6 cells | 262 µL/min/1e6 cells |  |  | 
24 | Cc1cc(OCC(=O)O)cc(C)c1Cc1ccc(O)c(C(C)C)c1 [SOBETIROME] |  |  |  |  |  |  | 21%
25 | O=C(Nc1ccn(-c2cncc(F)c2)n1)C1(c2ccccc2)CC1 | 6.25 | 7.66 | 7 µL/min/1e6 cells | 50 µL/min/1e6 cells |  |  | 

Row | SMILES | pIC50 [1] | pIC50 [2] | hepatocyte CLint [3] | hepatocyte CLint [4] | pIC50 [5] | pIC50 [6] | Activity [7]
26 | O=C(Nc1ccn(-c2cncc(F)c2)n1)C1(c2ccccc2F)CC1 | 5.92 | 7.74 | 10 µL/min/1e6 cells | 68 µL/min/1e6 cells |  |  | 
27 | O=C(Nc1ccn(-c2ccccc2)n1)C1(c2ccccc2)CC1(F)F (stereo not drawn) | 6.01 | 6.85 | 194 µL/min/1e6 cells | 278 µL/min/1e6 cells |  |  | 
28 | O=C(Nc1ccn(-c2ncns2)n1)C1(c2ccccc2F)CC1 | 6.40 | 7.74 | 14 µL/min/1e6 cells | 25 µL/min/1e6 cells |  |  | 
29 | O=C(Nc1ccn(-c2cncc(F)c2)n1)C1(c2cc(F)ccc2F)CC1 | 6.26 | 6.77 | 6 µL/min/1e6 cells | 25 µL/min/1e6 cells |  |  | 
30 | COc1ccccc1C1(C(=O)Nc2ccn(-c3cncc(F)c3)n2)CC1 | < 4.30 | < 5.30 |  |  |  |  | 
31 | O=C(Cc1ccccc1F)Nc1cccc(-c2ccccc2)n1 | < 4.30 | < 5.30 |  |  |  |  | 
32 | O=C(Nc1ccn(-c2ccncn2)n1)C1(c2ccccc2F)CC1 | 6.05 | 7.52 | 14 µL/min/1e6 cells | 59 µL/min/1e6 cells |  |  | 
33 | O=C(Nc1ccn(-c2cncc(F)c2)n1)C1(c2ccc(Cl)cc2)CC1 | 5.62 | 6.47 | 5 µL/min/1e6 cells | 133 µL/min/1e6 cells |  |  | 
34 | O=C(Nc1nc(-c2ccccc2)cs1)C1CCCO1 (stereo not drawn) | 4.52 |  |  |  | < 4.00 | < 4.00 | 
35 | O=C(Nc1nc(-c2ccncc2)cs1)C1(c2ccccc2)CC1 | 5.74 |  |  |  | < 4.00 | < 4.00 | 
36 | O=C(Nc1ccn(-c2ccccc2)n1)C1(c2ccccc2)COC1 | 5.09 | 6.59 | 31 µL/min/1e6 cells | 32 µL/min/1e6 cells |  |  | 
37 | C[C@@H](C(=O)Nc1ccn(-c2ccccc2)n1)c1ccccc1 | 5.80 | 6.68 | 56 µL/min/1e6 cells | 313 µL/min/1e6 cells |  |  | 
38 | Cc1ccccc1C1(C(=O)Nc2ccn(-c3cncc(F)c3)n2)CC1 | 5.12 | 6.40 | 40 µL/min/1e6 cells | 400 µL/min/1e6 cells |  |  | 
39 | O=C(Cc1ccccc1F)Nc1ccnc(-c2ccccc2)n1 | < 4.30 |  |  |  |  |  | 
40 | COc1cccc(C2(C(=O)Nc3ccn(-c4cncc(F)c4)n3)CC2)c1 | 5.82 | 6.77 | 19 µL/min/1e6 cells | 355 µL/min/1e6 cells |  |  | 
41 | N#Cc1cccc(C2(C(=O)Nc3ccn(-c4cncc(F)c4)n3)CC2)c1 | 5.64 | 6.51 | 4 µL/min/1e6 cells | 60 µL/min/1e6 cells |  |  | 
42 | O=C(Nc1ccn(-c2ccccc2)n1)C1(c2ccccc2)CC1 | 6.30 | 7.70 | 38 µL/min/1e6 cells | 111 µL/min/1e6 cells |  |  | 
43 | O=C(Nc1ccn(-c2cncc(F)c2)n1)C1(c2ccc(F)cc2)CC1 | 6.08 | 7.00 | 4 µL/min/1e6 cells | 88 µL/min/1e6 cells |  |  | 
44 | O=C(Nc1ccn(-c2cncc(F)c2)n1)C1(c2c(F)cccc2F)CC1 | 5.92 | 7.77 | 4 µL/min/1e6 cells | 13 µL/min/1e6 cells |  |  | 
45 | O=C(Cc1ccccc1F)Nc1nc(-c2ccccc2)cs1 | 5.49 | 6.55 | 102 µL/min/1e6 cells | 281 µL/min/1e6 cells |  |  | 
46 | O=C(Cc1ccccc1)Nc1nc(-c2ccccc2)cs1 | 5.40 | 6.30 | 127 µL/min/1e6 cells | 398 µL/min/1e6 cells |  |  | 
47 | O=C(Nc1ccn(-c2cncc(F)c2)n1)C1(c2ccccc2Cl)CC1 | 5.35 | 6.96 | 8 µL/min/1e6 cells | 61 µL/min/1e6 cells |  |  | 
48 | O=C(Nc1ccn(-c2ccncc2)n1)C1(c2ccccc2F)CC1 | 5.82 | 7.10 |  | 80 µL/min/1e6 cells |  |  | 
49 | CN(C)C(C(=O)Nc1ccn(-c2ccccc2)n1)c1ccccc1 (stereo not drawn) | < 4.30 | 5.77 |  |  |  |  | 
50 | COc1cc(-n2ccc(NC(=O)C3(c4ccccc4F)CC3)n2)ccn1 | 5.92 | 7.30 | 11 µL/min/1e6 cells | 130 µL/min/1e6 cells |  |  | 
